Legend:
[1] = biological target: T1, PARP-1 (Homo sapiens, UniProt P09874); assay: PARP enzymatic assay (HT Universal Colorimetric PARP1 Assay Kit); assay type: biochemical; details: read-out: PARP-1 enzymatic inhibition IC50
T1 construct: purchased
How it was run: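 Inhibition of PARP1 was measured with the HT Universal Colorimetric PARP1 Assay Kit. A 96-well plate was coated with histone proteins overnight at 4° C, washed with PBST, and blocked for 30 min at room temperature. Test compound and 20 μl of PARP1 (1 nM) were then added and incubated. Streptavidin-HRP (1:50) and chemiluminescent HRP substrate were added, and the signal was read on an Envision microplate reader.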

[2] = tested on: HCC1937 cells; assay: Cellular PARylation assay; assay type: cell-based; details: Homo sapiens; HCC1937 cells, compound 30 min then 1 mM H2O2 10 min; read-out: cellular PARylation EC50
How it was run: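 HCC1937 cells pretreated 30 min with compound, then stimulated with 1 mM H2O2 for 10 min. Fixed cells immunostained with anti-PAR 10H and FITC secondary, with DAPI counterstain; fluorescence read on a plate reader.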

T1 sequence (P09874 whole entry): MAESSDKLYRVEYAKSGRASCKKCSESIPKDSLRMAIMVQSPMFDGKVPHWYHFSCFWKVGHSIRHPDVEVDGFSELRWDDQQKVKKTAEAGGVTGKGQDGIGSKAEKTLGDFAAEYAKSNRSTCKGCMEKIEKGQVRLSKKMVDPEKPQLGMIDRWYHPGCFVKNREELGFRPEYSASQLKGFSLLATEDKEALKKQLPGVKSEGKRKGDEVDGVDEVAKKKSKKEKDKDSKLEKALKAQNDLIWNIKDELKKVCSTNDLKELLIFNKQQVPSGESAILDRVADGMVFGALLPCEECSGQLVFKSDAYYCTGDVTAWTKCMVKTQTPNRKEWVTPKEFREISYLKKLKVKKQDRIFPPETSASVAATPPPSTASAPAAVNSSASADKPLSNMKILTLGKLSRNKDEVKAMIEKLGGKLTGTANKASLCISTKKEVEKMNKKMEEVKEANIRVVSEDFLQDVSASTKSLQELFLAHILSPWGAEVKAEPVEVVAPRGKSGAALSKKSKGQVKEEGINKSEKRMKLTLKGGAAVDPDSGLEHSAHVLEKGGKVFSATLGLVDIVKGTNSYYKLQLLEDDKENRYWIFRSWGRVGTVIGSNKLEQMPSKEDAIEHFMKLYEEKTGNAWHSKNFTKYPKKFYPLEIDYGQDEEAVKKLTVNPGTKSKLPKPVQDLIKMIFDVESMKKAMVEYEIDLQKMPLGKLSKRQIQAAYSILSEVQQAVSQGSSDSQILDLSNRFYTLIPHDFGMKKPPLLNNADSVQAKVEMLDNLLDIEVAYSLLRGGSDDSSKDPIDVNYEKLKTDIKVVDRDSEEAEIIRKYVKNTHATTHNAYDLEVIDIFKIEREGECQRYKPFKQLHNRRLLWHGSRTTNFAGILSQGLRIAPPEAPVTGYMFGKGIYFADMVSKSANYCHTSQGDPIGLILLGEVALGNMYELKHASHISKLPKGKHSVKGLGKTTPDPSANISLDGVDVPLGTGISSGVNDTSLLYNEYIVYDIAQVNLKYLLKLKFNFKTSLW

Compound | IC50 [1] | EC50 [2]
Cn1ccnc1CN1CCC(C)(c2cnn3c2[nH]c2cc(F)cc(C(N)=O)c23)CC1 [Example 84, 6-fluoro-3-(4-methyl-1-((1-methyl-1H-imidazol-2-yl)methyl)piperidin-4-yl)-4H-benzo[4,5]imidazo[1,2-b]pyrazole-8-carboxamide] | 1 to 100 nM | 1 to 100 nM
CCN1CCC(CC)(c2cnn3c2[nH]c2cc(F)cc(C(N)=O)c23)CC1 [Example 107, 3-(1,4-diethylpiperidin-4-yl)-6-fluoro-4H-benzo[4,5]imidazo[1,2-b]pyrazole-8-carboxamide] | 1 to 100 nM | 1 to 100 nM
CCN1CCC(C)(c2cnn3c2[nH]c2cc(F)cc(C(N)=O)c23)C1 (centres unmarked) [Example 90, 3-(1-ethyl-3-methylpyrrolidin-3-yl)-6-fluoro-4H-benzo[4,5]imidazo[1,2-b]pyrazole-8-carboxamide] | 1 to 100 nM | 1 to 100 nM
CC1(c2cnn3c2[nH]c2cc(F)cc(C(N)=O)c23)CCN(CCC(F)(F)F)C1 (centres unmarked) [Example 99, 6-fluoro-3-(3-methyl-1-(3,3,3-trifluoropropyl)pyrrolidin-3-yl)-4H-benzo[4,5]imidazo[1,2-b]pyrazole-8-carboxamide] | 1 to 100 nM | 1 to 100 nM
CCN1C2CCC1CC(c1cnn3c1[nH]c1cc(F)cc(C(N)=O)c13)C2 (centres unmarked) [Example 35, 3-(8-ethyl-8-azabicyclo[3.2.1]octan-3-yl)-6-fluoro-4H-benzo[4,5]imidazo[1,2-b]pyrazole-8-carboxamide] | 1 to 100 nM | 101 to 1000 nM
CCN1CCC(C)(c2c(C)nn3c2[nH]c2cc(F)cc(C(N)=O)c23)CC1 [Example 112, 3-(1-ethyl-4-methylpiperidin-4-yl)-6-fluoro-2-methyl-4H-benzo[4,5]imidazo[1,2-b]pyrazole-8-carboxamide] | 1 to 100 nM | 1 to 100 nM
CCN1CCCC(c2cnn3c2[nH]c2cc(F)cc(C(N)=O)c23)C1 (centres unmarked) [Example 17, 3-(1-ethylpiperidin-3-yl)-6-fluoro-4H-benzo[4,5]imidazo[1,2-b]pyrazole-8-carboxamide] | 1 to 100 nM | 101 to 1000 nM
Cc1nn2c([nH]c3cc(F)cc(C(N)=O)c32)c1C1(C)CCN(CC(C)(C)O)CC1 [Example 116, 6-fluoro-3-(1-(2-hydroxy-2-methylpropyl)-4-methylpiperidin-4-yl)-2-methyl-4H-benzo[4,5]imidazo[1,2-b]pyrazole-8-carboxamide] | 1 to 100 nM | 1 to 100 nM
CC1(c2cnn3c2[nH]c2cc(F)cc(C(N)=O)c23)CCS(=O)(=O)CC1 [Example 106, 6-fluoro-3-(4-methyl-1,1-dioxidotetrahydro-2H-thiopyran-4-yl)-4H-benzo[4,5]imidazo[1,2-b]pyrazole-8-carboxamide] | 1 to 100 nM | 101 to 1000 nM
CC1(c2cnn3c2[nH]c2cc(F)cc(C(N)=O)c23)CCN(CCF)C1 (centres unmarked) [Example 95, 6-fluoro-3-(1-(2-fluoroethyl)-3-methylpyrrolidin-3-yl)-4H-benzo[4,5]imidazo[1,2-b]pyrazole-8-carboxamide] | 1 to 100 nM | 1 to 100 nM
CC1(c2cnn3c2[nH]c2cc(F)cc(C(N)=O)c23)CCN(CC2CC2(F)F)C1 (centres unmarked) [Example 96, 3-(1-((2,2-difluorocyclopropyl)methyl)-3-methylpyrrolidin-3-yl)-6-fluoro-4H-benzo[4,5]imidazo[1,2-b]pyrazole-8-carboxamide] | 1 to 100 nM | 1 to 100 nM
CC1(c2cnn3c2[nH]c2cc(F)cc(C(N)=O)c23)CCN(CC2(N)CC2)C1 (centres unmarked) [Example 100, 3-(1-((1-aminocyclopropyl)methyl)-3-methylpyrrolidin-3-yl)-6-fluoro-4H-benzo[4,5]imidazo[1,2-b]pyrazole-8-carboxamide] | 1 to 100 nM | 1 to 100 nM
CC1(c2cnn3c2[nH]c2cc(F)cc(C(N)=O)c23)CCN(CCC#N)CC1 [Example 88, 3-(1-(2-cyanoethyl)-4-methylpiperidin-4-yl)-6-fluoro-4H-benzo[4,5]imidazo[1,2-b]pyrazole-8-carboxamide] | 1 to 100 nM | 1 to 100 nM
NC(=O)c1cc(F)cc2[nH]c3c(C4CCOCC4)cnn3c12 [Example 47, 6-fluoro-3-(tetrahydro-2H-pyran-4-yl)-4H-benzo[4,5]imidazo[1,2-b]pyrazole-8-carboxamide] | 1 to 100 nM | > 1000 nM
CC1(c2cnn3c2[nH]c2cc(F)cc(C(N)=O)c23)CCN(Cc2ccc(=O)[nH]n2)CC1 [Example 87, 6-fluoro-3-(4-methyl-1-((6-oxo-1,6-dihydropyridazin-3-yl)methyl)piperidin-4-yl)-4H-benzo[4,5]imidazo[1,2-b]pyrazole-8-carboxamide] | 1 to 100 nM | 101 to 1000 nM
CNCc1ccc(F)c(-c2cnn3c2[nH]c2cc(F)cc(C(N)=O)c23)c1 [Example 44, 6-fluoro-3-(2-fluoro-5-((methylamino)methyl)phenyl)-4H-benzo[4,5]imidazo[1,2-b]pyrazole-8-carboxamide] | 101 to 1000 nM | 101 to 1000 nM

Compound | IC50 [1] | EC50 [2]
CN1CC2CC2(c2cnn3c2[nH]c2cc(F)cc(C(N)=O)c23)C1 (centres unmarked) [Example 28, 6-fluoro-3-(3-methyl-3-azabicyclo[3.1.0]hexan-1-yl)-4H-benzo[4,5]imidazo[1,2-b]pyrazole-8-carboxamide] | 1 to 100 nM | 1 to 100 nM
CCN1CCC(CN2CCC(C)(c3cnn4c3[nH]c3cc(F)cc(C(N)=O)c34)CC2)CC1 [Example 78, 3-(1-((1-ethylpiperidin-4-yl)methyl)-4-methylpiperidin-4-yl)-6-fluoro-4H-benzo[4,5]imidazo[1,2-b]pyrazole-8-carboxamide] | 1 to 100 nM | 1 to 100 nM
NC(=O)c1cc(F)cc2[nH]c3c(C4CCN(CCO)CC4)cnn3c12 [Example 16, 6-fluoro-3-(1-(2-hydroxyethyl)piperidin-4-yl)-4H-benzo[4,5]imidazo[1,2-b]pyrazole-8-carboxamide] | 1 to 100 nM | 1 to 100 nM
NC(=O)c1cc(F)cc2c1-n1ncc(C3CCN(CC4CC4)CC3)c1C2(F)F [Example 50, 3-(1-(cyclopropylmethyl)piperidin-4-yl)-4,4,6-trifluoro-4H-pyrazolo[1,5-α]indole-8-carboxamide] | 101 to 1000 nM | > 1000 nM
CC1(c2cnn3c2[nH]c2cc(F)cc(C(N)=O)c23)CCN(CC2(S(C)(=O)=O)CC2)CC1 [Example 73, 6-fluoro-3-(4-methyl-1-((1-(methylsulfonyl)cyclopropyl)methyl)piperidin-4-yl)-4H-benzo[4,5]imidazo[1,2-b]pyrazole-8-carboxamide] | 1 to 100 nM | 1 to 100 nM
NC(=O)c1cc(F)cc2[nH]c3c(-c4ccncc4)cnn3c12 [Example 45, 6-fluoro-3-(pyridin-4-yl)-4H-benzo[4,5]imidazo[1,2-b]pyrazole-8-carboxamide] | 101 to 1000 nM | > 1000 nM
CN1CCC(C)(c2cnn3c2[nH]c2cc(F)cc(C(N)=O)c23)C1 (centres unmarked) [Example 91, 3-(1,3-dimethylpyrrolidin-3-yl)-6-fluoro-4H-benzo[4,5]imidazo[1,2-b]pyrazole-8-carboxamide] | 1 to 100 nM | 1 to 100 nM
CC1(c2cnn3c2[nH]c2cc(F)cc(C(N)=O)c23)CCN(CC2(C#N)CCC2)CC1 [Example 64, 3-(1-((1-cyanocyclobutyl)methyl)-4-methylpiperidin-4-yl)-6-fluoro-4H-benzo[4,5]imidazo[1,2-b]pyrazole-8-carboxamide] | 1 to 100 nM | 101 to 1000 nM
CC1(c2cnn3c2[nH]c2cc(F)cc(C(N)=O)c23)CCN(CC2(C#N)CCC2)C1 (centres unmarked) [Example 101, 3-(1-((1-cyanocyclobutyl)methyl)-3-methylpyrrolidin-3-yl)-6-fluoro-4H-benzo[4,5]imidazo[1,2-b]pyrazole-8-carboxamide] | 1 to 100 nM | 101 to 1000 nM
CC1(c2cnn3c2[nH]c2cc(F)cc(C(N)=O)c23)CCN(C2CC(F)C2)CC1 (centres unmarked) [Example 76, 6-fluoro-3-(1-(3-fluorocyclobutyl)-4-methylpiperidin-4-yl)-4H-benzo[4,5]imidazo[1,2-b]pyrazole-8-carboxamide] | 1 to 100 nM | 1 to 100 nM
CN(C)C1CCC(c2cnn3c2[nH]c2cc(F)cc(C(N)=O)c23)CC1 (centres unmarked) [Example 48, 3-(4-(dimethylamino)cyclohexyl)-6-fluoro-4H-benzo[4,5]imidazo[1,2-b]pyrazole-8-carboxamide] | 1 to 100 nM | 1 to 100 nM
CC1(c2cnn3c2[nH]c2cc(F)cc(C(N)=O)c23)CCN(Cc2cccs2)CC1 [Example 77, 6-fluoro-3-(4-methyl-1-(thiophen-2-ylmethyl)piperidin-4-yl)-4H-benzo[4,5]imidazo[1,2-b]pyrazole-8-carboxamide] | 1 to 100 nM | 1 to 100 nM
NC(=O)c1cc(F)cc2[nH]c3c(CNC(=O)C4CC4)cnn3c12 [Example 40, 3-(cyclopropanecarboxamidomethyl)-6-fluoro-4H-benzo[4,5]imidazo[1,2-b]pyrazole-8-carboxamide] | 1 to 100 nM | > 1000 nM
CN1CCCC(c2cnn3c2[nH]c2cc(F)cc(C(N)=O)c23)CC1 (centres unmarked) [Example 19, 6-fluoro-3-(1-methylazepan-4-yl)-4H-benzo[4,5]imidazo[1,2-b]pyrazole-8-carboxamide] | 1 to 100 nM | 1 to 100 nM
CC1(CN2CCC(C)(c3cnn4c3[nH]c3cc(F)cc(C(N)=O)c34)CC2)COC1 [Example 71] | 1 to 100 nM | 1 to 100 nM
